Several values for one entry are separate records, joined by “and”; a condition that tells them apart may be missing. Equal values may be shown once.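 Compound exposure: 48 hours, 5 concentrations, 96-well plates. Here, GI50 denotes the concentration required for 50% inhibition of growth. The concentration for full growth arrest is given as TGI.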
Tests used:
Assay in all cases: NCI tumour cell line growth inhibition, 48 h
[1] = system: M14 melanoma
[2] = system: SF-295 CNS
[3] = system: NCI-H522 lung
[4] = system: T-47D breast
[5] = system: HT29 colon
[6] = system: SNB-19 CNS
[7] = system: NCI/ADR-RES ovarian
[8] = system: SF-539 CNS
[9] = system: EKVX NSCLC
[10] = system: CAKI-1 renal

| Structure (SMILES) | GI50 [1] | TGI [1] | GI50 [2] [µM] | TGI [2] | GI50 [3] [µM] | TGI [3] | GI50 [4] [µM] | TGI [4] | GI50 [5] [µM] | TGI [5] | GI50 [6] [µM] | TGI [6] | GI50 [7] [µM] | TGI [7] [µM] | GI50 [8] [nM] | TGI [8] | GI50 [9] | TGI [9] | GI50 [10] | TGI [10] |
| --- | --- | --- | --- | --- | --- | --- | --- | --- | --- | --- | --- | --- | --- | --- | --- | --- | --- | --- | --- | --- |
| CN(c1ccccc1)c1c2ccccc2nc2[nH]c3ccccc3c12 | 2210 nM | 4.43 µM | 2.44 | 5.76 µM | 3.56 | 14.9 µM | 3.84 | 32.6 µM | 3.83 | > 100 µM | 3.77 | 15.5 µM | 7.79 | > 47.8 | 1910 | 4.59 µM | 5.04 µM | 21 µM | 1.92 µM | 5.92 µM |
| CN(C)CCCC1(c2ccc(F)cc2)OCc2cc(-c3csc4ccccc34)ccc21 (configuration not stated) | 1660 nM | 3.36 µM | 1.64 | 3.04 µM | 1.65 | 3.48 µM | 1.71 | 3.7 µM | 1.55 | 3.46 µM | 1.6 | 3.04 µM | 1.59 | 3.07 | 1710 | 3.08 µM | 1.51 µM | 2.89 µM | 1.62 µM | 3.05 µM |
| O=C1NC(=O)C2C3C=CC(C12)C1C2C(=O)NC(=O)C2C31 (configuration not stated) | > 973000 nM | 250 µM and > 1000 µM | 827 | 199 µM and > 1000 µM | 261 | 235 µM and 864 µM | 480 | > 1000 µM | 657 | 194 µM and > 1000 µM | 327 | 238 µM and > 904 µM | > 1000 | > 1000 | 316000 | 199 µM and > 1000 µM | 543 µM | 250 µM and > 1000 µM | 568 µM | 250 µM and > 1000 µM |
| CN(C)[C@@H]1C(=O)C(C(=O)NCc2nc3[nH]cnc(=S)c3[nH]2)=C(O)[C@@]2(O)C(=O)C3=C(O)c4c(O)cccc4[C@@](C)(O)[C@H]3C[C@@H]12 | 1050 nM | > 100 µM | > 100 | > 100 µM | > 100 | > 100 µM | 1.95 | > 100 µM | 8.45 | > 100 µM | > 100 | > 100 µM | 6.13 | > 100 | 3670 | > 100 µM | > 100 µM | > 100 µM | 3 µM | > 100 µM |
| N#C[Se]CCN1C(=O)c2ccccc2C1=O | 1210 nM | 3.8 µM | 1.65 | 3.7 µM | 4.72 | 21.9 µM | 3.45 | 20.2 µM | 2.84 | 8.29 µM | 2.41 | 8.66 µM | 1.87 | 7.42 | 1920 | 6.85 µM | 2.88 µM | 10.3 µM | 2.94 µM | 8.62 µM |
| FC(F)(F)c1cccc(CNC2CCN(CCc3ccccc3)CC2)c1 | – | – | 17.2 | 35.4 µM | 20.9 | 44.4 µM | 20 | 52.9 µM | 13.5 | 46.1 µM | 30.8 | > 100 µM | 41.9 | > 100 | 15300 | 30.2 µM | – | – | 22.4 µM | > 100 µM |
| COc1nc(N)nc2nc[nH]c12 | 772000 nM and 585000 nM | 500 µM and 800 µM and > 1000 µM | > 881 | > 1000 µM | 554 | 500 µM and 800 µM and > 917 µM | > 779 | 500 µM and > 1000 µM | > 800 | 500 µM and > 800 µM and > 1000 µM | > 1000 | > 1000 µM | 580 | > 739 | > 800000 | 500 µM and > 800 µM and > 1000 µM | 651 µM and > 759 µM | > 387 µM and 800 µM and > 1000 µM | 188 µM and 295 µM | 410 µM and 522 µM and 730 µM |
| COc1ccc(Cn2c(Br)c3c(c2-c2cc(OC)c(OC)c(OC)c2)CCc2sc(N)nc2-3)cc1 | 1360 nM | > 44.9 µM | 0.556 | 7.57 µM | 0.263 | 1.09 µM | 0.626 | 21.5 µM | 0.731 | 5.48 µM | 3.97 | > 100 µM | 0.866 | 36.3 | 1160 | 10.5 µM | – | – | 0.765 µM | > 28.2 µM |
| O=C1NC(=NCc2cccs2)O/C1=C\c1ccc2ncccc2c1 | 5000 nM | 17 µM | 5.03 | 15.9 µM | 2 | 8.34 µM | 2.98 | 12.6 µM | 6.12 | 21.2 µM | 7.04 | > 25 µM | 7.8 | > 25 | 2870 | 8.59 µM | – | – | 3.86 µM | 12.3 µM |

Reference: PubChem BioAssay (NCI)
